# Laboratory results as given in patent US9212209B2, “Screening methods for spinal muscular atrophy” (Indiana University Research and Technology Corporation, priority 2012, dated 2015).
# Read-outs that look alike come from different tables or passages of the source.
# Tested on: SMN2-luciferase reporter
# Assay: SMN2-luciferase reporter assay (clonal HEK-293 SMN2-luc cells)
# Type: cell-based, human
# Parameters: % activation: concentration or dose not given beside the values
# Conditions: for % activation: Table 5; for Max. fold increase: cell-based reporter response to known SMN2 modulating compounds; for Emax: read-out: Max % Activity
# Description: The reporter cell lines were plated at 50,000 cells per well in 96-well plates and incubated overnight. Compounds were added to each well and incubated at 37° C. overnight. The final DMSO concentration was 0.1%. Luciferase activity was assayed using either STEADYGLO (PROMEGA E2510) or DUALGLO (PROMEGA E2920) luciferase using the WALLAC ENVISION multilabel reader. For detailed assay conditions see Table 2A. All data points were transformed from CPS to percent increase over basal expression in the treated control wells (DMSO or H2O as appropriate).
# Plates were sealed with porous paper tape and incubated for 24 hours. […] For comparison, data points were transformed from CPS to percent activation over basal expression in the DMSO treated control wells.
# For comparison, all data points are expressed as percent increase over basal luciferase expression in the control cells.
# [1] = Homo sapiens, HEK293, reporter assay, Table 6, read-out: Ec50
# [2] = Homo sapiens, HEK293, reporter assay, Table 6
EC50 [1],Structure (SMILES),"Active (reporter assay, Table 6)",Emax [2],other results
,CC(C)(C)c1cc(NC(=O)c2cnc3ccccc3n2)no1 [LDN-211907],No/Weak,,
,CC(C)(C)c1cc(C(=O)Nc2ccc(F)c(Cl)c2)no1 [LDN-211858],No,,
,COCCOc1c(OC)cc2c(c1OC)C(c1cc(Cl)ccc1F)CC(=O)N2 (centres unmarked) [LDN-213772],No,,
,Brc1ccc(-c2cn3ccccc3n2)cc1 [Compound 66278],,,% activation (reporter assay): 114%
,CC(C)c1cc(NC(=O)Cc2ccc(F)c(Cl)c2)no1 [LDN-211832],No,,
,"CC(/C=C/C(=O)NO)=C\[C@@H](C)C(=O)c1ccc(N(C)C)cc1 [Trichostatin A, trichostatin A, reference compound]",,,"Max. fold increase: 15 fold; EC50 (cell-based reporter, known SMN2 modulating compounds, read-out: EC50): 0.23 µM"
,COc1cc2c(c(OC)c1OC)C(c1cccnc1Cl)CC(=O)N2 (centres unmarked) [LDN-212390],No,,
251 µM,COc1cc2c(c(OC)c1OC)C(c1ccccc1Cl)CC(=O)N2 (centres unmarked) [CAL-21],Yes,14%,
0.4 µM,CC(C)(O)c1cnc(NC(=O)c2ccc(F)c(Cl)c2)s1 [LDN-212255],Yes,117%,
,CC1CC(C(=O)Nc2cnccn2)=NO1 (centres unmarked) [CAL-2],No,,
,CCCC1C(=O)Nc2cc(OC)c(OC)c(OC)c2C1c1cc(Cl)ccc1F (centres unmarked) [LDN-214096],No,,
,COC1=CC2NC(=O)CC(c3cc(C(N)O)ccc3F)C2C(OC)=C1OC (centres unmarked) [LDN-212358],No,,
,"NC[C@H]1O[C@H](O[C@H]2[C@H](O)[C@@H](O[C@H]3O[C@H](CO)[C@@H](O)[C@H](N)[C@H]3O)[C@H](N)C[C@@H]2N)[C@H](N)C[C@@H]1O [Tobramycin, tobramycin, reference compound]",,,"response of luciferase activity in the reporter cell lines (SMN1-luc and SMN2-luc cell lines, words): no response; Max. fold increase: inactive ^a; EC50 (cell-based reporter, result in words): inactive ^a"
,O=C(Nc1nnc(-c2ccccc2)s1)c1ccc(F)c(Cl)c1 [LDN-211982],No,,
,COc1cc2c(c(OC)c1OC)C(c1cccc(Cl)c1Cl)CC(=O)N2 (centres unmarked) [CAL-56],No,,
,COc1cc2c(c(OC)c1OC)C(c1cc(Cl)ccc1F)CC(=O)N2 (centres unmarked) [LDN-213769],No,,
2 µM,O=C(Nc1ccc(F)c(Cl)c1)C1=NOC(C2CC2)C1 (centres unmarked) [CAL-10],Yes,250%,
,COc1cc2c(c(OC)c1OC)C(c1cccc(C(F)(F)F)c1)CC(=O)N2 (centres unmarked) [CAL-55],No,,
91 µM,COc1cc2c(c(OC)c1OC)C(c1c(F)cccc1Cl)CC(=O)N2 (centres unmarked) [CAL-53],Yes,27%,
0.15 µM,CC(C)(C)c1coc(NC(=O)c2ccc(F)c(Cl)c2)n1 [LDN-211992],Yes,100%,
,COc1cc2c(c(OC)c1OC)C(c1cccc3ccccc13)CC(=O)N2 (centres unmarked) [LDN-212355],No/Weak,,
,CC(C)(C)c1cc(=O)[nH]c(NC(=O)c2ccc(F)c(Cl)c2)n1 [LDN-212026],No,,
,CC(C)(C)c1cc(NS(=O)(=O)c2ccc3ccccc3c2)no1 [LDN-211859],No,,
0.9 µM,CC(C)c1cc(C(=O)Nc2cc(Cl)ccc2Cl)no1 [CAL-28],Yes,59%,
1.5 µM,CC(C)Cc1cc(C(=O)Nc2ccc(F)c(Cl)c2)no1 [LDN-75879],Yes,180%,

EC50 [1],Structure (SMILES),"Active (reporter assay, Table 6)",Emax [2],other results
,COC1=CC2NC(=O)CC(c3cc(NC(C)=O)ccc3F)C2C(OC)=C1OC (centres unmarked) [LDN-212360],No,,
,CC(C)c1cc(C(=O)Nc2ccc(F)c(Cl)c2)n[nH]1 [LDN-211830],No,,
,CC(C)c1cc(C(=O)Nc2ccc(F)c(Cl)c2)n(C)n1 [LDN-211857],No,,
10 µM,CC1CC(C(=O)Nc2ccc(F)cc2)=NO1 (centres unmarked) [CAL-5],Yes,108%,
,COC(=O)c1ccc2nc(NC(=O)C(C)C)sc2c1 [Compound 110116],,,% activation (reporter assay): 97%
0.8 µM,Cc1cnc(NC(=O)c2ccc(F)c(Cl)c2)s1 [LDN-211985],Yes,150%,
,CC1CC(C(=O)Nc2cccnc2)=NO1 (centres unmarked) [CAL-9],No,,
,O=C(Nc1nc2c(s1)Cc1ccccc1-2)C1=COCCO1 [Compound 110181],,,% activation (reporter assay): 120%
,COc1cc2c(c(OC)c1OC)C(c1cc(Br)ccc1F)CC(=O)N2C (centres unmarked) [LDN-212263],No,,
,COc1cc2c(c(OC)c1OC)C(c1cc(C=N)ccc1F)CC(=O)N2 (centres unmarked) [LDN-212361],No,,
,COc1ccc2c(c1OC)C(c1cc(Br)ccc1F)CC(=O)N2 (centres unmarked) [CAL-23],No,,
6.5 µM,CC1CC(C(=O)Nc2ccc(Cl)cc2F)=NO1 (centres unmarked) [CAL-6],Yes,180%,
,COc1cc(Br)c(C2CC(=O)Nc3cc(OC)c(OC)c(OC)c32)cc1OC (centres unmarked) [CAL-51],No,,
3.7 µM,CC(C)(C)c1cc(NC(=O)c2ccc(F)c(Cl)c2)on1 [LDN-211861],Yes,100%,
0.5 µM,CC(C)(C)c1cc(NC(=O)c2ccc3ccccc3c2)no1 [LDN-211854],Yes,200%,
0.8 µM,CC(C)(C)c1cc(NC(=O)c2cnc3ccccc3c2)no1 [LDN-211906],Yes,250%,
,O=C(Nc1nc(-c2ccccc2)co1)c1ccc(F)c(Cl)c1 [LDN-212011],No,,
2.5 µM,CC(C)c1cc(NC(=O)c2ccc(F)c(Cl)c2)on1 [LDN-211860],Yes,125%,
,Cc1cc(NC(=O)C2=NOC(C)C2)no1 (centres unmarked) [CAL-3],No,,
30 µM,CN(C(=O)c1cc(C2CC2)on1)c1ccccc1 [CAL-37],Yes,143%,
1.7 µM,O=C(Nc1ccc2c(c1)OCO2)c1cc(C2CC2)on1 [CAL-33],Yes,217%,
,COc1cc2c(c(OC)c1OC)C(c1cc(Cl)ccc1F)NC(=O)N2 (centres unmarked) [LDN-213767],Yes,,"Max % Activity (reporter assay, Table 6): 125%; EC50 (reporter assay, Table 6, read-out: Ec50): 8.4 µM"
,COc1cc2c(c(OC)c1OC)C(c1coc3ccccc13)CC(=O)N2 (centres unmarked) [LDN-212389],No/Weak,,
10 µM,O=C(Nc1ccc(Cl)cc1)C1=NOC(c2ccccc2)C1 (centres unmarked) [CAL-7],Yes,134%,
,COc1cc2c(c(OC)c1OC)C(c1ccnc(Cl)c1)CC(=O)N2 (centres unmarked) [LDN-212393],No/Weak,,

EC50 [1],Structure (SMILES),"Active (reporter assay, Table 6)",Emax [2],other results
,COc1cc2c(c(OC)c1OC)C(c1ccc(Cl)cn1)CC(=O)N2 (centres unmarked) [LDN-212392],No,,
94 µM,COc1ccc(NC(=O)c2cc(C(C)C)on2)cc1OC [CAL-26],Yes,160%,
,O=C(c1cc(C2CC2)on1)N1CCCc2ccccc21 [CAL-36],No,,
,COc1ccc(-c2cn3cccc(C)c3n2)cc1Br [Compound 32531],,,% activation (reporter assay): 108%
2.1 µM,Cc1csc(NC(=O)c2ccc(F)c(Cl)c2)n1 [LDN-211984],Yes,200%,
,CCOC(=O)C1C(=O)Nc2cc(OC)c(OC)c(OC)c2C1c1cc(Cl)ccc1F (centres unmarked) [LDN-212388],No,,
,Cc1ccc(-c2cc(-c3ccccc3Cl)[nH]n2)c(O)c1 [Compound 72939],,,% activation (reporter assay): 102%
43 µM,COc1cc2c(c(OC)c1OC)C(c1cccc3ccccc13)CC(=O)N2 (centres unmarked) [LDN-212356],Yes,150%,
,COc1cc2c(c(OC)c1OC)C(c1ccc(Cl)c(Cl)c1)CC(=O)N2 (centres unmarked) [LDN-212266],No/Weak,,
,COc1ccc(Cl)cc1NC(=O)c1cc(C(C)C)on1 [CAL-29],No,,
10 µM,CC1CC(C(=O)Nc2ccc(F)c(Cl)c2)=NO1 (centres unmarked) [CAL-8],Weak,120%,
0.5 µM,O=C(Nc1nc(C2CCC2)cs1)c1ccc(F)c(Cl)c1 [LDN-212013],Yes,100%,
,CC(C)(C)c1cc(NC(=O)c2cc3ccccc3o2)no1 [LDN-211909],No/Weak,,
3 µM,CC(C)(C)c1cc(NC(=O)c2ccc(F)c(Cl)c2)no1 [LDN-211831],Yes,150%,
,CC(C)(C)c1c[nH]c(NC(=O)c2ccc(F)c(Cl)c2)n1 [LDN-212012],No,,
,COc1cc2c(c(OC)c1OC)C(c1cc(F)ccc1F)CC(=O)N2 (centres unmarked) [LDN-212353],No/Weak,,
20 µM,O=C(Nc1ccc(F)c(Cl)c1)c1cc(C2CCCC2)on1 [LDN-211828],Yes,100%,
,O=C1CCc2cc(C(=O)CSc3ccccc3)ccc2N1 [Compound 98541],,,% activation (reporter assay): 124%
,COc1cc2c(c(OC)c1OC)C(c1cccc(-c3ccccc3)c1)CC(=O)N2 (centres unmarked) [LDN-212267],No,,
,COc1cc2c(c(OC)c1)C(c1c(Cl)cccc1Cl)CC(=O)N2 (centres unmarked) [LDN-76515],No,,
,CC(C)(C)c1cc(NC(=O)c2nc3ccccc3[nH]2)no1 [LDN-214095],No,,
2.6 µM,CC(C)c1cc(C(=O)Nc2ccc3c(c2)OCO3)no1 [LDN-75676],Yes,337%,% activation (reporter assay): 136%
1.1 µM,Cc1ccc(C(=O)Nc2cc(C(C)(C)C)on2)cc1C [LDN-211912],Yes,150%,
